Assay results as given in patent publication EP0051773A1, “Penicillins, their salts, process for their preparation and pharmaceutical compositions containing them” (Dr. Karl Thomae GmbH, priority 1980, dated 1982).
In brackets after ≈: the same amount, converted by molar mass.

Columns and labels:
[1] = tested on: Escherichia coli ATCC 11 775; assay: serial dilution test in microtiter system (bacteriostasis, MIC); assay type: cell-based; conditions: ATCC11, liquid medium, 18 to 20 h at 37°C, read-out: MHK-Werte E.coli ATCC 11 755
Experimental: (§1) Für die Untersuchungen wurde die Methode des Reihenverdünnungstestes im Mikrotitersystem angewandt. Die Prüfung der Substanzen auf Bakteriostase erfolgte in flüssigem Medium. Es wurde die Bakteriostasewirkung bei folgenden Konzentrationen untersucht.
(§2) Es wurde ein Nährboden folgender Zusammensetzung benutzt: 10 g Pepton, 8 g Fleischextrakt-Oxoid, 3 g Natriumschlorid, 2 g sek. Natriumphosphat werden mit dest. Wasser auf 1000 ml aufgefüllt (pH 7,2-7,4). Lediglich bei der Testung gegen Streptokokken wurde 1% Glucose hinzugefügt. Das Alter der Primärkulturen betrug etwa 20 Stunden. Die Einstellung der Keimsuspension erfolgte am Photometer (nach "Eppendorf") (Reagenzglas-Durchmesser 14 mm, Filter 546 nm) anhand der Trübung einer Bariumsulfat-Vergleichssuspension, die durch eine Bariumsulfat-Aufschwemmung erzeugt wurde, welche durch die Zugabe von 3,0 ml 1%ige Bariumchloridlösung in 97 ml 1%ige Schwefelsäure entstand. Nach der Einstellung wurden Streptococcus Aronson im Verhältnis 1:15 und die übrigen Testkeime im Verhältnis 1:1500 mit einer Kochsalzlösung weiter verdünnt.
(§3) 16 mg der jeweiligen Substanz wurden in 10 ml-Meßkolben eingewogen und mit dem Lösungsmittel bis zur Marke aufgefüllt. Die weitere Verdünnungsreihe wurde mit destilliertem Wasser oder dem jeweiligen Lösungsmittel hergestellt.
(§4) Die Vertiefungen der Mikrotiterplatten wurden mit 0,2 ml Nährmedium, 0,01 ml der entsprechenden Substanzverdünnung und mit einem Tropfen Keimsuspension (0,01 ml) beschickt und 18 bis 20 Stunden bei 37°C bebrütet. Eine Lösungsmittelkontrolle wurde stets mitgeführt.
(§5) Die Ablesung wurde makroskopisch vorgenommen, wobei die jeweilige Grenkonzentration (= niedrigste noch bakteriostatisch wirksame Konzentration) ermittelt wurde.
(§6) Als Testorganismen wurden benützt: - Staphylococcus aureus SG 511, Escherichia coli ATCC 11 775, Pseudomonas aeruginosa Hamburgensis und Walter, Serratia marcescens ATCC 13 880, Klebsiella pneumoniae ATCC 10 031 und BC 6, Proteus mirabilis Hamburgensis, Proteus rettgeri BC 7 und Enterobacter cloacae ATCC 13 047.
(§7) In der folgenden Tabelle 2 sind die ermittelten minimalen Hemmkonzentrationen (MIC) für typische Vertreter der erfindungsgemäßen Verbindungen aufgeführt, wobei sich die Ziffern auf die Penicilline der Tabelle 1 Seite 18 beziehen.

[2] = tested on: Pseudomonas aeruginosa Hamburgensis; assay: as above; assay type: cell-based; conditions: liquid medium, 18 to 20 h at 37°C, read-out: MHK-Werte Pseud. aerug. Hbg.
Experimental: as §1, §2, §3, §4, §5, §6, §7

[3] = tested on: Klebsiella pneumoniae ATCC 10 031; assay: as above; assay type: cell-based; conditions: ATCC10, liquid medium, 18 to 20 h at 37°C, read-out: MHK-Werte Kl. pneum. ATCC 10 031
Experimental: as §1, §2, §3, §4, §5, §6, §7

[4] = tested on: Serratia marcescens ATCC 13 880; assay: as above; assay type: cell-based; conditions: ATCC13, liquid medium, 18 to 20 h at 37°C, read-out: MHK-Werte Serr. marcesc. ATCC 13 880
Experimental: as §1, §2, §3, §4, §5, §6, §7

[5] = tested on: Proteus mirabilis Hamburgensis; assay: as above; assay type: cell-based; conditions: liquid medium, 18 to 20 h at 37°C, read-out: MHK-Werte Prot. mir. Hbg.
Experimental: as §1, §2, §3, §4, §5, §6, §7

[6] = tested on: Pseudomonas aeruginosa Walter; assay: as above; assay type: cell-based; conditions: liquid medium, 18 to 20 h at 37°C, read-out: MHK-Werte Pseud. aerug. Walter
Experimental: as §1, §2, §3, §4, §5, §6, §7

Proteus rettgeri BC 7 = assay: as above; assay type: cell-based; conditions: Providencia rettgeri, BC7; liquid medium, 18 to 20 h at 37°C; read-out: MHK-Werte Prot. rettg. BC 7
Experimental: as §1, §2, §3, §4, §5, §6, §7

[7] = tested on: Staphylococcus aureus SG 511; assay: as above; assay type: cell-based; conditions: SG511, liquid medium, 18 to 20 h at 37°C, read-out: MHK-Werte Staph. aureus SG 511
Experimental: as §1, §2, §3, §4, §5, §6, §7

[8] = tested on: Enterobacter cloacae ATCC 13 047; assay: as above; assay type: cell-based; conditions: ATCC13, liquid medium, 18 to 20 h at 37°C, read-out: MHK-Werte Eb. cloacae 13 047
Experimental: as §1, §2, §3, §4, §5, §6, §7

[9] = tested on: Klebsiella pneumoniae BC 6; assay: as above; assay type: cell-based; conditions: BC6, liquid medium, 18 to 20 h at 37°C, read-out: MHK-Werte Kl. pneum. BC 6
Experimental: as §1, §2, §3, §4, §5, §6, §7

E.coli ATCC 11 775 = assay: experimental intraperitoneal infection in mice, ED50 (survival); assay type: in vivo, Mäuse; conditions: Escherichia coli, ATCC 11 / ATCC 1175, sc, 168 h; female NMRI mice, i.p. infection, s.c. application, treated once, 7 days observation
Experimental: (§8) Eine Reihe der erfindungsgemäßen Verbindungen wurde in vivo bei experimentellen Infektionen an Mäusen untersucht. Man verwendete als pathogene Bakterien E.coli ATCC 11 775 und Pseudomonas aeruginosa Walter. Es wurde eine intraperitoneale Infektion mit 0,2 ml einer 5%igen Mucinsuspension der Bakterien gesetzt. Dies entspricht etwa 2x10^6 Keime E.coli bzw. 8x10^5 Keime Pseudomonas/Maus. Weibliche Mäuse vom Stamm NMRI wurden in Gruppen von jeweils 10 Tieren aufgeteilt, zwei Gruppen blieben unbehandelt, die restlichen Gruppen wurden mit verschiedenen Dosen der jeweiligen erfindungsgemäßen Penicilline zur Bestimmung der ED50 (Dosis, bei der 50 % der Tiere überleben) behandelt. Bei der E.coli-Infektion wurde einmal therapiert. Bei der Pseudomonas-Infektion wurde dreimal behandelt.
(§9) Der Beobachtungszeitraum betrug in beiden Fällen 7 Tage. Die Ergebnisse dieser Teste mit repräsentativen Vertretern der erfindungsgemäßen Penicilline sind in der Tabelle 3 dargestellt.

[10] = tested on: Pseudomonas aeruginosa Walter; assay: as above; assay type: in vivo, Mäuse; conditions: sc, 168 h, female NMRI mice, i.p. infection, s.c. application, treated three times, 7 days observation, read-out: ED50 Pseud. aerug. Walter
Experimental: as §8, §9

SMILES | MIC [1] [µg/mL] | MIC [2] [µg/mL] | MIC [3] [µg/mL] | MIC [4] [µg/mL] | MIC [5] [µg/mL] | MIC [6] [µg/mL] | MIC (Proteus rettgeri BC 7) [µg/mL] | MIC [7] [µg/mL] | MIC [8] [µg/mL] | MIC [9] [µg/mL] | ED50 (E.coli ATCC 11 775) [mg/kg] | ED50 [10] [mg/kg]
CNC(=O)c1ccc(Nc2ncc(NC(=O)NC(C(=O)NC3C(=O)N4C3SC(C)(C)C4C(=O)O)c3ccc(O)cc3)c(O)n2)cc1 (stereo not shown) [Verbindung 37] | 0.25 (≈ 0.384 µM) | 1 (≈ 1.54 µM) | 2 (≈ 3.07 µM) | 0.25 (≈ 0.384 µM) | 0.06 (≈ 0.0922 µM) | 1 (≈ 1.54 µM) | 0.5 (≈ 0.768 µM) | 0.5 (≈ 0.768 µM) | 1 (≈ 1.54 µM) | 2 (≈ 3.07 µM) | 2.8 | 8
CC1(C)SC2C(NC(=O)C(NC(=O)Nc3cnc(Nc4ccc(S(C)(=O)=O)cc4)nc3O)c3ccccc3)C(=O)N2C1C(=O)O (stereo not shown) [Verbindung 24] | 0.12 (≈ 0.183 µM) | 1 (≈ 1.53 µM) | 0.5 (≈ 0.763 µM) | 0.12 (≈ 0.183 µM) | 0.06 (≈ 0.0915 µM) | 2 (≈ 3.05 µM) | 0.12 (≈ 0.183 µM) | 0.25 (≈ 0.381 µM) | 2 (≈ 3.05 µM) | 0.5 (≈ 0.763 µM) | 4.7 | 7.5
CCN1CCN(C(=O)N[C@@H](C(=O)N[C@@H]2C(=O)N3[C@@H]2SC(C)(C)[C@@H]3C(=O)O)c2ccccc2)C(=O)C1=O [D, Piperacillin, reference compound] | 2 (≈ 3.86 µM) | 4 (≈ 7.73 µM) | 4 (≈ 7.73 µM) | 0.5 (≈ 0.966 µM) | 0.25 (≈ 0.483 µM) | 8 (≈ 15.5 µM) | 0.5 (≈ 0.966 µM) | 0.25 (≈ 0.483 µM) | 4 (≈ 7.73 µM) | 8 (≈ 15.5 µM) | 89 | 186
CC1(C)S[C@@H]2[C@H](NC(=O)C(NC(=O)Nc3cnc(NCc4ccc(S(N)(=O)=O)cc4)nc3O)c3ccc(O)cc3)C(=O)N2[C@H]1C(=O)O (stereo partly shown) [Verbindung 64] | 0.12 (≈ 0.175 µM) | 2 (≈ 2.91 µM) | 4 (≈ 5.82 µM) | 0.25 (≈ 0.364 µM) | 0.06 (≈ 0.0874 µM) | 1 (≈ 1.46 µM) | 0.5 (≈ 0.728 µM) | 0.25 (≈ 0.364 µM) | 2 (≈ 2.91 µM) | 4 (≈ 5.82 µM) | 2.4 | 12.4
CC1(C)S[C@@H]2[C@H](NC(=O)C(NC(=O)Nc3cnc(Nc4ccc(C(N)=O)c(O)c4)nc3O)c3ccc(O)cc3)C(=O)N2[C@H]1C(=O)O (stereo partly shown) [Verbindung 50] | 0.25 (≈ 0.383 µM) | 1 (≈ 1.53 µM) | 2 (≈ 3.06 µM) | 0.25 (≈ 0.383 µM) | 0.06 (≈ 0.0919 µM) | 1 (≈ 1.53 µM) | 0.5 (≈ 0.766 µM) | 0.5 (≈ 0.766 µM) | 2 (≈ 3.06 µM) | 2 (≈ 3.06 µM) | 4 | 
C[S+]([O-])c1ccc(Nc2ncc(NC(=O)NC(C(=O)NC3C(=O)N4C3SC(C)(C)C4C(=O)O)c3ccccc3)c(O)n2)cc1 (stereo not shown) [Verbindung 21] | 0.25 (≈ 0.391 µM) | 2 (≈ 3.13 µM) | 2 (≈ 3.13 µM) | 0.25 (≈ 0.391 µM) | 0.12 (≈ 0.188 µM) | 2 (≈ 3.13 µM) | 0.5 (≈ 0.782 µM) | 0.25 (≈ 0.391 µM) | 2 (≈ 3.13 µM) | 1 (≈ 1.56 µM) | 3 | 6.6
CC1(C)S[C@@H]2[C@H](NC(=O)[C@H](NC(=O)Nc3cnc(Nc4ccc(S(N)(=O)=O)cc4)nc3O)c3ccc(O)c(Cl)c3)C(=O)N2[C@H]1C(=O)O [Verbindung 4] | 0.25 (≈ 0.354 µM) | 2 (≈ 2.83 µM) | 2 (≈ 2.83 µM) | 0.25 (≈ 0.354 µM) | 0.25 (≈ 0.354 µM) | 1 (≈ 1.41 µM) | 0.5 (≈ 0.707 µM) | 0.25 (≈ 0.354 µM) | 1 (≈ 1.41 µM) | 2 (≈ 2.83 µM) | 6.1 | 
